Laboratory results taken from patent US20250017998A1, “SP-8356, EMODIN, AND IT603 ENHANCE BEIGE ADIPOCYTE ACTIVITY AND ALLEVIATE OBESITY AND DIABETES VIA UNCOUPLING PROTEIN 1 (UCP1)-INDEPENDENT MECHANISM” (The Chinese University of Hong Kong, priority 2023, published 2025).

Assays:
[1] = tested on: WT human beige adipocytes; test: Seahorse Mitochondrial Stress Test, oxygen consumption rate in WT human beige adipocytes; type: cell-based; details: 1 μM, 24 h, WT hiPSC-derived beige adipocytes, vs DMSO (FIGS. 2A-2C)
Experimental: (§1) FIGS. 2A-2F. SP-8356, emodin, and IT603 increase energy expenditure in human beige adipocytes in a UCP1-independent manner. WT or UCP1 knockout hiPSCs were differentiated to beige adipocytes followed by treatment with SP-8356 (1 μM), Emodin (1 μM), and IT603 (1 μM) for 24 h, respectively. DMSO was used as the vehicle control. The oxygen consumption rate (OCR) was examined by the Seahorse Mitochondrial Stress Test assay. (FIGS. 2A-2C) OCR in WT human beige adipocytes treated with SP-8356, Emodin, and IT603, respectively. (FIGS. 2D-2F) OCR in UCP1 knockout human beige adipocytes treated with SP-8356, Emodin, and IT603, respectively. *p<0.05, **p<0.01. A total of 20 days was required for hiPSC differentiation into beige adipocytes. We used BMP4 (10 ng/mL) and ActivinA (25 ng/mL) from day 0 to day 4 to induce mesodermal differentiation in the first stage. We then induce mesodermal progenitors to differentiate into adipocyte progenitors with insulin ([…]), isobutylmethylxanthine (IBMX) (500 μmol/L), dexamethasone (1 μmol/L), and indomethacin (50 μmol/L) from day 4 to day 10. Eventually, mature beige adipocytes will be formed by insulin (1 μg/mL) induction on day 10 to 20. […] were plated in the XF96 plates (Agilent Technologies, Inc., Santa Clara, CA) and differentiated into the beige adipocytes. The XF Cell Mito Stress Test Kit (Seahorse Bioscience, 103015-100) was used to perform the assay by following the manufacturer's instructions.

[2] = tested on: UCP1 knockout human beige adipocytes; test: Seahorse Mitochondrial Stress Test, oxygen consumption rate in UCP1 knockout human beige adipocytes; type: cell-based; details: 1 μM, 24 h, UCP1 knockout hiPSC-derived beige adipocytes, vs DMSO (FIGS. 2D-2F)
Experimental: as §1

[3] = tested on: LETMD1; test: LETMD1-tdTomato reporter hiPSC-derived beige adipocytes, red fluorescence; type: cell-based, human; details: 0.1 μM, 24 h, LETMD1 reporter hiPSC-derived beige adipocytes (FIG. 1C)
Experimental: (§2) FIGS. 1A-1C. Generation and characterization of the LETMD1-tdTomato reporter hiPSC. (FIG. 1A) Schematic illustration of the knock-in design for the LETMD1-tdTomato reporter hiPSCs. (FIG. 1B) hiPSCs were differentiated into beige adipocytes and treated with β3 adrenergic receptor (β3-AR) agonist Mirabegron (0.1 μM) for 24 h and subjected to RNA-seq. The fold change of LETMD1 and its analogue LETM1 were plotted. (FIG. 1C) Representative images of tdTomato fluorescence intensity in LETMD1 reporter hiPSC-derived beige adipocytes treated with or without Mirabegron (0.1 μM) for 24 h.
A total of 20 days was required for hiPSC differentiation into beige adipocytes. […]
LETMD1 reporter hiPSCs were plated in the 96-well plates and differentiated into beige adipocytes. […] After that, the red fluorescent signals were quantified by the ThermoFisher (Waltham, MA) Varioskan Multimode Microplate Reader. […] measurement for each compound was normalized to the vehicle control group.
(§3) To monitor the endogenous LETMD1 expression in human iPSCs with ease, we generated a fluorescent protein-based reporter human iPS cell line using a CRISPR/Cas9-mediated knock-in (KI) system (FIG. 1A). […] This cell line enables us to monitor the endogenous expression of LETMD1 in a high-throughput manner using the red fluorescence intensity as a surrogate.

[4] = tested on: LETMD1; test: RNA-seq of LETMD1 mRNA in hiPSC-derived beige adipocytes; type: cell-based, human; details: 0.1 μM, 24 h, RNA sequencing (FIG. 1B)
Experimental: as §2
A total of 20 days was required for hiPSC differentiation into beige adipocytes. We used BMP4 (10 ng/mL) and ActivinA (25 ng/mL) from day 0 to day 4 to induce mesodermal differentiation in the first stage. We then induce mesodermal progenitors to differentiate into adipocyte progenitors with insulin ([…]), isobutylmethylxanthine (IBMX) (500 μmol/L), dexamethasone (1 μmol/L), and indomethacin (50 μmol/L) from day 4 to day 10. […]
as §3

Row | Structure (SMILES) | oxygen consumption rate (OCR) [1] | oxygen consumption rate (OCR) [2] | density of tdTomato fluorescent protein [3] | mRNA level of LETMD1 [4]
1 | COc1cc(Br)cc(/C=C2/NC(=S)NC2=O)c1O [IT603] | showed most significant capacity to elevate the OCR | enhanced the OCR | – | –
2 | Nc1nc(CC(=O)Nc2ccc(CCNC[C@H](O)c3ccccc3)cc2)cs1 [Mirabegron] | – | – | increased significantly | significantly increased
3 | COc1cc(/C=C/C2=CC(=O)[C@H]3C[C@@H]2C3(C)C)cc(O)c1O [SP-8356] | showed most significant capacity to elevate the OCR | enhanced the OCR | – | –
4 | Cc1cc(O)c2c(c1)C(=O)c1cc(O)cc(O)c1C2=O [emodin] | showed most significant capacity to elevate the OCR | enhanced the OCR | – | –
